# Entries after “also recorded” stand apart in the source; their conditions may differ.
# What was measured:
# Type in all cases: in vivo, mouse
# TgCRND8 mice [1] = experiment: Vascular amyloid (Aβ) burden; details: prophylactic treatment, vs untreated
# Description: Cerebral amyloid burden. Brains were removed and one hemisphere was fixed in 4% paraformaldehyde and embedded in paraffin wax in the mid sagittal plane. To generate sets of systematic uniform random sections, 5 μm serial sections were collected across the entire hemisphere. Sets of sections at 50 μm intervals were used for analyses (10-14 sections/set). Plaques were identified after antigen retrieval with formic acid, and incubation with primary anti-Aβ antibody (Dako M-0872), followed by secondary antibody (Dako StreptABCcomplex/horseradish kit). End products were visualized with DAB and were counter-stained with luxol fast blue. Amyloid plaque burden was assessed with Leco IA-3001 image analysis software interfaced with Leica microscope and Hitachi KP-M1U CCD video camera. Openlab imaging software (Improvision, Lexington, Mass.) was then used to convert micrographs to binary images for plaque number and plaque area determinations. Vascular amyloid burden was defined as amyloid originating from or surrounding blood vessels and was analysed similarly.
# Cerebral Aβ burden. Brains were removed and fixed one hemisphere from each in 4% paraformaldehyde and embedded in paraffin wax in the midsagittal plane. Sets of sections at […] intervals for analyses (10-14 sections per set) were used. Plaques with primary Aβ-specific antibody (Dako M-0872) were identified and visualized with DAB. AP plaque burden was assessed with Openlab imaging software (Improvision) and used to convert micrographs to binary images for determinations of plaque number and plaque area. Vascular Aβ burden was defined as Aβ plaques originating from or surrounding blood vessels and was analyzed similarly.
# Cerebral Aβ burden. Brains were removed and one hemisphere was fixed in 4% paraformaldehyde and embedded in paraffin wax in the mid sagittal plane. […] Aβ plaque burden was assessed with Leco IA-3001 image analysis software interfaced with Leica microscope and Hitachi KP-M1U CCD video camera. […] Vascular Aβ burden was defined as Aβ plaques originating from or surrounding blood vessels and was analyzed similarly.
# TgCRND8 mice [2] = experiment: Morris water maze spatial reference memory test; details: for spatial learning performance compared with non-Tg littermates / spatial learning performance compared with untreated TgCRND8 littermates: 28 days of treatment from 5 months of age, tested at 6 months; for cognitive performance compared with non-Tg mice / cognitive performance compared with untreated TgCRND8 mice / cognitive performance compared with non-Tg littermates: prophylactic
# Description: Behavioural tests: Morris Water Maze testing was performed as previously described. After non-spatial pre-training, mice underwent place discrimination training for 5 days with 4-trials per day, followed by a cued visible platform to rule out general motivational, learning deficits and motor problems, and a probe trial to evaluate memory. […] Open field test for motor activity was preformed as described previously. Duration of walking, pausing and grooming were analyzed as indices of spontaneous locomotor activity. Sensorimotor function was examined with an EconomexTM accelerating rotarod (Columbus Instruments, Columbus, Ohio), as described elsewhere. The rod was set to accelerate at a rate of 0.2 r.p.m./s, from an initial, constant speed of 5 r.p.m. Latency to fall was recorded in four daily trials, conducted at 30 min intervals. All mice were trained for seven days before testing. The test day performance score for each animal was obtained by summing its latency to fall over the four trials Behavioral tests. Morris water maze testing was carried out as previously described. After nonspatial pretraining, mice underwent place discrimination training for 5 d with four trials per day, followed by a cued visible platform trial and a probe trial. An open-field test for motor activity was carried out as described previously. Sensorimotor function was assessed with an Economex accelerating rotarod (Columbus Instruments) as previously described. Behavioural tests. Morris Water Maze testing was performed as previously described. After non-spatial pre-training, mice underwent place discrimination training for 5 days with 4-trials per day, followed by a cued visible platform to rule out general motivational, learning deficits and motor problems, and a probe trial to evaluate memory. The probe trial was conducted at 72 h after the last testing, and used an annulus-crossing index to assess spatial recall. The annulus-crossing index measures the number of passes over the original platform position relative to passes over the other three quadrants. […] Open field test for motor activity was performed as described previously
# TgCRND8 mice [3] = experiment: Open field test for motor activity; details: treated TgCRND8 mice vs untreated TgCRND8 and non-Tg littermates
# Description: Behavioural tests: Morris Water Maze testing was performed as previously described. After non-spatial pre-training, mice underwent place discrimination training for 5 days with 4-trials per day, followed by a cued visible platform to rule out general motivational, learning deficits and motor problems, and a probe trial to evaluate memory. […] Open field test for motor activity was preformed as described previously. Duration of walking, pausing and grooming were analyzed as indices of spontaneous locomotor activity. Sensorimotor function was examined with an Economex™ accelerating rotarod (Columbus Instruments, Columbus, Ohio), as described elsewhere. The rod was set to accelerate at a rate of 0.2 r.p.m./s, from an initial, constant speed of 5 r.p.m. Latency to fall was recorded in four daily trials, conducted at 30 min intervals. All mice were trained for seven days before testing. The test day performance score for each animal was obtained by summing its latency to fall over the four trials
# Behavioral tests. Morris water maze testing was carried out as previously described. After nonspatial pretraining, mice underwent place discrimination training for 5 d with four trials per day, followed by a cued visible platform trial and a probe trial. An open-field test for motor activity was carried out as described previously. Sensorimotor function was assessed with an Economex accelerating rotarod (Columbus Instruments) as previously described.
# Behavioural tests. Morris Water Maze testing was performed as previously described. After non-spatial pre-training, mice underwent place discrimination training for 5 days with 4-trials per day, followed by a cued visible platform to rule out general motivational, learning deficits and motor problems, and a probe trial to evaluate memory. The probe trial was conducted at 72 h after the last testing, and used an annulus-crossing index to assess spatial recall. […]
# Duration of walking, pausing and grooming were analyzed as indices of spontaneous locomotor activity. […] Latency to fall was recorded in four daily trials, conducted at 30 min intervals. […]
# [4] = listed as scyllocyclohexanehexol
smiles,measurement,setting,value
"OC1C(O)C(O)C(O)C(O)C1O (stereo not drawn) [epi-cyclohexanehexol, 1,2,3,4,5/6-(epi-) cyclohexanehexol, reference compound]",total vascular Aβ load / vascular Aβ deposits,TgCRND8 mice [1],no change
same,spatial learning performance compared with non-Tg littermates,TgCRND8 mice [2],significantly poorer than the performance of their non-Tg littermates; also recorded: remained impaired with respect to non-Tg littermates; also recorded: remained impaired with respect to nontransgenic littermates
same,spatial learning performance compared with untreated TgCRND8 littermates,TgCRND8 mice [2],not significantly different from that of untreated TgCRND8 littermates; also recorded: ineffective at reversing behavioral deficits
same,spatial learning performance compared with non-Tg littermates,TgCRND8 mice [2]; listed as AZD-102,remained impaired with respect to non-Tg littermates
same,spatial learning performance compared with untreated TgCRND8 littermates,TgCRND8 mice [2]; listed as AZD-102,not different from untreated TgCRND8 littermates
same,cognitive performance compared with non-Tg mice,TgCRND8 mice [2]; 6 weeks to 4 months of age,significantly different from treated and untreated nontransgenic mice
same,cognitive performance compared with untreated TgCRND8 mice,TgCRND8 mice [2]; 6 weeks to 4 months of age,significant behavioral improvement
same,cognitive performance compared with non-Tg mice,"TgCRND8 mice [2]; 6 weeks to 4 months of age, listed as AZD-102",significantly different from treated and untreated non-Tg mice
same,cognitive performance compared with non-Tg littermates,TgCRND8 mice [2]; 6 weeks to 6 months of age,indistinguishable from nontransgenic littermates; also recorded: approached that of nontransgenic littermates
same,cognitive performance compared with untreated TgCRND8 mice,TgCRND8 mice [2]; 6 weeks to 6 months of age,significantly better cognitive function compared to untreated TgCRND8 littermates
same,cognitive performance compared with non-Tg littermates,"TgCRND8 mice [2]; 6 weeks to 6 months of age, listed as AZD-102",approached that of non-Tg littermates
"OC1C(O)C(O)C(O)C(O)C1O (stereo not drawn) [scyllo-cyclohexanehexol, 1,3,5/2,4,6-(scyllo-) cyclohexanehexol]",brain area covered by cerebrovascular Aβ,TgCRND8 mice [1],reduced brain area covered by cerebrovascular Aβ
same,mean size of cerebrovascular deposits,TgCRND8 mice [1],reduced mean size of cerebrovascular deposits
same,spatial learning performance compared with non-Tg littermates,TgCRND8 mice [2],indistinguishable from that of their non-Tg littermates; also recorded: indistinguishable from nontransgenic littermates
same,spatial learning performance compared with untreated TgCRND8 littermates,TgCRND8 mice [2],significantly better behavioural performance compared to untreated TgCRND8 mice; also recorded: significantly better than untreated TgCRND8 littermates
same,spatial learning performance compared with non-Tg littermates,TgCRND8 mice [2]; listed as AZD-103,indistinguishable from non-Tg littermates
same,spatial learning performance compared with untreated TgCRND8 littermates,TgCRND8 mice [2]; listed as AZD-103,significantly better than untreated TgCRND8 littermates
same,spatial learning performance compared with non-Tg littermates,TgCRND8 mice [2]; [4],indistinguishable from nontransgenic littermates
same,spatial learning performance compared with untreated TgCRND8 littermates,TgCRND8 mice [2]; [4],improved behavioral performance
same,effect on cognition,"TgCRND8 mice [2]; TgCRND8 mice treated for 2 months, ending at 7 months of age",Sustained effects
same,"spatial memory, dose-response","TgCRND8 mice [2]; TgCRND8 mice, 0.3-30 mg/kg/d orally, tested at 4 months of age",dose-dependent improvement
same,cognitive performance compared with non-Tg mice,TgCRND8 mice [2]; 6 weeks to 4 months of age,approached that of nontransgenic mice
same,cognitive performance compared with untreated TgCRND8 mice,TgCRND8 mice [2]; 6 weeks to 4 months of age,significant behavioral improvement
same,cognitive performance compared with non-Tg mice,"TgCRND8 mice [2]; 6 weeks to 4 months of age, listed as AZD-103",approached that of non-Tg mice
same,cognitive performance compared with non-Tg mice,"TgCRND8 mice [2]; 6 weeks to 4 months of age, listed as Scyllo-cyclohexanehexol",indistinguishable from nontransgenic littermates on days 4 and 5 of testing
same,cognitive performance compared with non-Tg littermates,TgCRND8 mice [2]; 6 weeks to 6 months of age,indistinguishable from nontransgenic littermates; also recorded: approached that of nontransgenic littermates
same,cognitive performance compared with untreated TgCRND8 mice,TgCRND8 mice [2]; 6 weeks to 6 months of age,significantly better cognitive function compared to untreated TgCRND8 littermates
same,"open field: grooming, pausing, walking / activity levels",TgCRND8 mice [3],indistinguishable; also recorded: does not affect activity levels
same,"open field: grooming, pausing, walking / activity levels",TgCRND8 mice [3]; listed as AZD-103,does not affect activity levels
same,"open field: grooming, pausing, walking / activity levels",TgCRND8 mice [3]; listed as Scyllo-cyclohexanehexol,no effect on grooming or activity
